Assay results reported in ChEMBL document CHEMBL1141313 (Bioorg Med Chem, 2007).
Blank lines part the entries; values can stand above or below the compound they belong to.

Assays:
[1] = tested on: Human immunodeficiency virus 1; assay: Antiviral activity against HIV1 in CEM cells; type: functional; conditions: Human immunodeficiency virus 1, CCRF-CEM; for IC50: read-out: ID50 (the source's name)
[2] = tested on: Human immunodeficiency virus 1; assay: Antiviral activity against HIV1 in MT4 cells; type: functional
[3] = target: Protease (Human immunodeficiency virus 1) (UniProt Q9YQ12); assay: (§1) Inhibition of HIV1 protease
Chain of Protease (Human immunodeficiency virus 1) (Q9YQ12 as listed by the source): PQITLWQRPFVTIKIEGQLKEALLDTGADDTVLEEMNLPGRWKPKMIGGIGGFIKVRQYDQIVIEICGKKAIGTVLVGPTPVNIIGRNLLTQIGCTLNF

Protease [4] = target: T1, Protease (Human immunodeficiency virus 1, UniProt Q9YQ12); assay: as §1
Target sequence in this assay (Q9YQ12 whole entry): as the sequence (Q9YQ12 as listed by the source) above

[5] = tested on: Human immunodeficiency virus 1; assay: Antiviral activity against protease inhibitor-resistant HIV1 isolate; type: functional, organism-based
Protease [6] = target: T1, Protease; assay: Inhibition of HIV1 protease mutant
Target sequence in this assay (Q9YQ12 1-99): as the sequence (Q9YQ12 as listed by the source) above

IC50 [1]: 4.7 nM
Compound: CC(C)CN(C[C@@H](O)[C@H](Cc1ccccc1)NC(=O)O[C@H]1CO[C@H]2OCC[C@H]21)S(=O)(=O)c1ccc(N)cc1
ID90 [2]: 10 nM
TD50 [2]: >100 µM

IC50 (Protease [4]): 1.8 nM
Compound: CC(C)(C)NC(=O)[C@@H]1C[C@@H]2CCCC[C@@H]2CN1C[C@@H](O)[C@H](Cc1ccccc1)NC(=O)O[C@H]1CO[C@H]2OCC[C@H]21
IC95 ([1]; read-out: CIC95): 46 nM

IC50 (Protease [4]): 1.8 nM
Ki (Protease [4]): 0.0045 nM
Compound: CC(C)CN(C[C@@H](O)[C@H](Cc1ccccc1)NC(=O)O[C@@H]1C[C@@H]2CCO[C@@H]2C1)S(=O)(=O)c1ccc(CO)cc1

Continued, compound first:

Compound: COC(=O)N[C@H](C(=O)NCCCC[C@@H](COP(=O)(O)O)N(CC(C)C)S(=O)(=O)c1ccc(N)cc1)C(c1ccccc1)c1ccccc1
Activity [3]: < 20 nM

Compound: COC(=O)N[C@H](C(=O)NCCCC[C@@H](CO)N(CC(C)C)S(=O)(=O)c1ccc(N)cc1)C(c1ccccc1)c1ccccc1
Activity [3]: < 20 nM

Compound: COc1ccc(S(=O)(=O)N(CC(C)C)C[C@@H](O)[C@H](Cc2ccccc2)NC(=O)O[C@H]2CO[C@H]3OCC[C@H]32)cc1
IC50 [1]: 1.2 nM

Compound: C=CCNC(=O)[C@H]1NC(C(=O)[C@@H](O)[C@H](Cc2ccccc2)NC(=O)c2cccc(O)c2)SC1(C)C (stereo partly drawn)
Ki (Protease [4]): 0.1 nM
EC50 [5]: 34 nM
Ki (Protease [6]): 0.1 nM
